≈ marks a conversion by molar mass, not a printed value.
Experiments:
Streptococcus pyogenes [1] = experiment: In vitro MIC, anaerobic agar dilution, Strep. pyogenes; assay type: cell-based; conditions: brain-heart infusion agar, 37°C.
Protocol: (§1) The in vitro activities are determined under anaerobic conditions in the following manner. Appropriate serial two-fold dilutions of the compounds are mixed with molten brain-heart infusion agar in sterile petri dishes and allowed to solidify. The bacterial cells (approximately 10^5 -10^6 cells) are placed on the top of the agar plate with a Steers replicating device. The plates are incubated at 37°C. in the anaerobic conditions achieved by a Gas Pak (BBL, Cockeysville, […].). The M.I.C. […] The in vitro and in vivo activities of compounds within this invention versus Streptococcus pyogenes and Escherichia coli are presented below: ##SPC4##

Escherichia coli [2] = experiment: In vitro MIC, anaerobic agar dilution, E. coli; assay type: cell-based; conditions: brain-heart infusion agar, 37°C.
Protocol: as §1

Streptococcus pyogenes [3] = experiment: In vivo survivors (SC route), Strep. pyogenes infection; conditions: SC route (subcutaneous); for responders at 100 mg/kg: 100 mg./kg. (footnote b)
Source text: (§2) The in vitro and in vivo activities of compounds within this invention versus Streptococcus pyogenes and Escherichia coli are presented below: ##SPC4##

Escherichia coli [4] = experiment: In vivo survivors (SC route), E. coli infection; conditions: SC route (subcutaneous); for responders at 100 mg/kg: 100 mg./kg. (footnote b)
Source text: as §2

Work on `Cc1c(CS(C)(=O)=O)[n+]([O-])c2ccccc2[n+]1[O-]` [CH3 SO2 --CH3] yielded an MIC (Streptococcus pyogenes [1]) of 1.56 µg/mL (≈ 5.82 µM), an MIC (Escherichia coli [2]) of 3.12 µg/mL (≈ 11.6 µM) and a responders at 50 mg/kg (Streptococcus pyogenes [3]) of 10%. The responders at 25 mg/kg (Escherichia coli [4]) was 70%.
With `Cc1c(C[S+](C)[O-])[n+]([O-])c2ccccc2[n+]1[O-]` (centres unmarked) [CH3 SO--CH3, 2-methyl-3-methylsulfinylmethylquinoxaline 1,4-dioxide] the MIC (Streptococcus pyogenes [1]) was 25 µg/mL (≈ 99.1 µM), the MIC (Escherichia coli [2]) was > 200 µg/mL and the responders at 50 mg/kg (Streptococcus pyogenes [3]) was 20%. For the same compound, the responders at 25 mg/kg (Escherichia coli [4]) was 10%.
Work on `CCCSCc1c[n+]([O-])c2ccccc2[n+]1[O-]` [H S--CH2 CH2 CH3, 2-n-propylthiomethylquinoxaline 1,4-dioxide] yielded an MIC (Streptococcus pyogenes [1]) of 50 µg/mL (≈ 200 µM), an MIC (Escherichia coli [2]) of 50 µg/mL (≈ 200 µM) and a responders at 50 mg/kg (Streptococcus pyogenes [3]) of 0%. It also gave a responders at 25 mg/kg (Escherichia coli [4]) of 60%.
`CSCc1c[n+]([O-])c2ccccc2[n+]1[O-]` [H S--CH3, 2-methylthiomethylquinoxaline 1,4-dioxide] gave an MIC (Streptococcus pyogenes [1]) of 1.56 µg/mL (≈ 7.03 µM), an MIC (Escherichia coli [2]) of 1.56 µg/mL (≈ 7.03 µM) and a responders at 100 mg/kg (Streptococcus pyogenes [3]) of 50%. The responders at 100 mg/kg (Escherichia coli [4]) was 70%.
Work on `CCCS(=O)(=O)Cc1c[n+]([O-])c2ccccc2[n+]1[O-]` [H SO2 --CH2 CH2 CH3] yielded an MIC (Streptococcus pyogenes [1]) of 3.12 µg/mL (≈ 11.1 µM), an MIC (Escherichia coli [2]) of 25 µg/mL (≈ 88.6 µM) and a responders at 50 mg/kg (Streptococcus pyogenes [3]) of 90%. For the same compound, the responders at 25 mg/kg (Escherichia coli [4]) was 90%.
In the case of `CCS(=O)(=O)Cc1c[n+]([O-])c2ccccc2[n+]1[O-]` [H SO2 --CH2 CH3, 2-Ethylsulfonylmethylquinoxaline-1,4-Dioxide], the MIC (Streptococcus pyogenes [1]) is reported as < 0.391 µg/mL, the MIC (Escherichia coli [2]) is reported as < 0.391 µg/mL and the responders at 50 mg/kg (Streptococcus pyogenes [3]) is reported as 100%. It also gave a responders at 25 mg/kg (Escherichia coli [4]) of 100%.
In the case of `CS(=O)(=O)Cc1c[n+]([O-])c2ccccc2[n+]1[O-]` [H SO2 --CH3, 2-Methylsulfonylmethylquinoxaline 1,4-Dioxide], the MIC (Streptococcus pyogenes [1]) is reported as < 0.391 µg/mL, the MIC (Escherichia coli [2]) is reported as < 0.391 µg/mL and the responders at 50 mg/kg (Streptococcus pyogenes [3]) is reported as 90%. For the same compound, the responders at 25 mg/kg (Escherichia coli [4]) was 100%.
`CC(C)S(=O)(=O)Cc1c[n+]([O-])c2ccccc2[n+]1[O-]` [H SO2 --CH(CH3)2] was tested, and the MIC (Streptococcus pyogenes [1]) was 1.56 µg/mL (≈ 5.53 µM), the MIC (Escherichia coli [2]) was 0.781 µg/mL (≈ 2.77 µM) and the responders at 50 mg/kg (Streptococcus pyogenes [3]) was 100%. It also gave a responders at 25 mg/kg (Escherichia coli [4]) of 90%.
`CCC[S+]([O-])Cc1c[n+]([O-])c2ccccc2[n+]1[O-]` (centres unmarked) [H SO--CH2 CH2 CH3, 2-n-propylsulfinylmethylquinoxaline 1,4-dioxide] showed an MIC (Streptococcus pyogenes [1]) of 1.56 µg/mL (≈ 5.87 µM), an MIC (Escherichia coli [2]) of 6.25 µg/mL (≈ 23.5 µM) and a responders at 50 mg/kg (Streptococcus pyogenes [3]) of 60%. It also gave a responders at 25 mg/kg (Escherichia coli [4]) of 50%.
`CC[S+]([O-])Cc1c[n+]([O-])c2ccccc2[n+]1[O-]` (centres unmarked) [H SO--CH2 CH3, 2-Ethylsulfinylmethylquinoxaline 1,4-Dioxide] gave an MIC (Streptococcus pyogenes [1]) of 0.781 µg/mL (≈ 3.1 µM), an MIC (Escherichia coli [2]) of 3.12 µg/mL (≈ 12.4 µM) and a responders at 50 mg/kg (Streptococcus pyogenes [3]) of 20%. The responders at 25 mg/kg (Escherichia coli [4]) was 90%.
For `C[S+]([O-])Cc1c[n+]([O-])c2ccccc2[n+]1[O-]` (centres unmarked) [H SO--CH3, 2-Methylsulfinylmethylquinoxaline 1,4-Dioxide], the MIC (Streptococcus pyogenes [1]) was < 0.391 µg/mL, the MIC (Escherichia coli [2]) was < 0.391 µg/mL and the responders at 100 mg/kg (Streptococcus pyogenes [3]) was 30%. For the same compound, the responders at 100 mg/kg (Escherichia coli [4]) was 100%.

From patent US3931174A, “Alkylmercaptomethylquinoxaline-1,4-dioxides and oxidized derivatives thereof” (Pfizer Inc., priority 1974, dated 1976)
